{"source": "patent US20260070945A1", "about": "“MACROCYCLIC IMMUNOMODULATORS” (Bristol-Myers Squibb Company, priority 2022, published 2026)", "note": "Where a SMILES comes first, the peptide text is derived from it. Bridges are numbered along the chain shown (N, C = ends). [ ]: non-standard residue; d: D form. The star is where a group is joined. ξ: configuration not given here. Phe(3-CF3) = N[C@@H](Cc1cccc(C(F)(F)F)c1)C(=O)O; Phe(4-CF3) = N[C@@H](Cc1ccc(C(F)(F)F)cc1)C(=O)O; Phe(4-COOH) = N[C@@H](Cc1ccc(C(=O)O)cc1)C(=O)O; Bip = N[C@@H](Cc1ccc(-c2ccccc2)cc1)C(=O)O; NH(CH2)14COOH = O=C(O)CCCCCCCCCCCCCCN*; Phe(3-F) = N[C@@H](Cc1cccc(F)c1)C(=O)O; Phe(3-Me) = Cc1cccc(C[C@H](N)C(=O)O)c1; Val(3-OH) = CC(C)(O)[C@H](N)C(=O)O; Cha = N[C@@H](CC1CCCCC1)C(=O)O; Cit = NC(=O)NCCC[C@H](N)C(=O)O; Ile(3ξ) = CCC(C)[C@H](N)C(=O)O; Thr(3ξ) = CC(O)[C@H](N)C(=O)O; Carboxymethyl = O=C(O)C*; NMeA = CN[C@@H](C)C(=O)O; Aun = NCCCCCCCCCCC(=O)O; Dab = NCC[C@H](N)C(=O)O; Nva = CCC[C@H](N)C(=O)O; AEEA = NCCOCCOCC(=O)O", "data": [{"molecular_target": "T1, PD-1/PD-L1 interaction (PE-labeled human PD-L1-Ig binding to Jurkat cell line over-expressing human PD-1) (Homo sapiens, UniProt Q15116)", "T1 construct": "expressed in transfected cells; host or cells: Jurkat", "T1 sequence (Q15116 25-288)": "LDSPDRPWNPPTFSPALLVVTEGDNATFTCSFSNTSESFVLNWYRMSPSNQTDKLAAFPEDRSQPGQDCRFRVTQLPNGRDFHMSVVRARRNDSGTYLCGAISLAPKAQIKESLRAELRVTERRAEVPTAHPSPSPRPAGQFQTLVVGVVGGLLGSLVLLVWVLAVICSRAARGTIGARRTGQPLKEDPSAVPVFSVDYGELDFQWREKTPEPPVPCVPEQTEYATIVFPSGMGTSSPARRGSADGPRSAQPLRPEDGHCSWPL", "experiment": "Jurkat-PD-1 Cell Binding High-Content Screening Assay (CBA)", "settings": "PE-labeled PD-L1-Ig 20 nM final, Jurkat-hPD-1 cells; read-out: Jurkat HPD1 PDL1 IC50", "in_short": "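High-content imaging read-out of PE-PD-L1-Ig binding (20 nM final, 1 h) to Jurkat-hPD-1 cells, after 2 h compound exposure at 37 °C in DMEM with 10% FCS. Nuclei counterstained with Hoechst 33342 after paraformaldehyde fixation.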", "units": {"IC50": "µM"}, "values": [{"compound": "CC(=O)NCCCC[C@@H]1NC(=O)[C@H](C(C)(C)O)NC(=O)[C@H](CC2CCCCC2)NC(=O)[C@H](CCN)NC(=O)[C@@H](CC(C)C)NC(=O)[C@H](C)N(C)C(=O)[C@H](CCC(N)=O)NC(=O)[C@H](Cc2ccc(-c3ccccc3)cc2)NC(=O)[C@H](Cc2ccc(C(=O)O)cc2)NC(=O)[C@H](Cc2cccc(C)c2)NC(=O)[C@H](CC(=O)O)NC(=O)[C@H](Cc2ccc(OCC(=O)O)cc2)NC(=O)[C@H](Cc2ccc(OCC(=O)O)cc2)NC(=O)CSC[C@@H](C(=O)N[C@@H](CCN)C(=O)NCCOCCOCC(=O)N[C@@H](CCC(=O)NCCCCCCCCCCCCCCC(=O)O)C(=O)O)NC1=O", "note": "[Example 2577] ({CH2CO}-Y(Carboxymethyl)Y(Carboxymethyl)D[Phe(3-Me)][Phe(4-COOH)][Bip]Q[NMeA][dL][Dab][Cha][Val(3-OH)]K(Ac)C[Dab][AEEA]E(NH(CH2)14COOH)-OH; thioether N-14)", "IC50": 0.0469}, {"compound": "Cc1cccc(C[C@@H]2NC(=O)[C@H](CC(=O)O)NC(=O)[C@H](Cc3ccc(OCC(=O)O)cc3)NC(=O)[C@H](Cc3ccc(C(F)(F)F)cc3)NC(=O)CSC[C@@H](C(=O)N[C@@H](CCN)C(=O)NCCOCCOCC(=O)NCCCCCCCCCCC(=O)O)NC(=O)[C@H](CCC(=O)O)NC(=O)[C@H](C(C)C)NC(=O)[C@H](CC3CCCCC3)NC(=O)[C@H](CCN)NC(=O)[C@@H](CC(C)C)NC(=O)[C@H](C)N(C)C(=O)[C@H](Cc3ccc(C(=O)O)cc3)NC(=O)[C@H](Cc3ccc(-c4ccccc4)cc3)NC(=O)[C@H](Cc3ccc(C(=O)O)cc3)NC2=O)c1", "note": "[Example 2578] ({CH2CO}-[Phe(4-CF3)]Y(Carboxymethyl)D[Phe(3-Me)][Phe(4-COOH)][Bip][Phe(4-COOH)][NMeA][dL][Dab][Cha]VEC[Dab][AEEA][Aun]-OH; thioether N-14)", "IC50": 0.0222}, {"compound": "CC(=O)NCCCC[C@@H]1NC(=O)[C@H](C(C)(C)O)NC(=O)[C@H](CC2CCCCC2)NC(=O)[C@H](CCN)NC(=O)[C@@H](CC(C)C)NC(=O)[C@H](C)N(C)C(=O)[C@H](CCC(N)=O)NC(=O)[C@H](Cc2ccc(-c3ccccc3)cc2)NC(=O)[C@H](Cc2ccc(C(=O)O)cc2)NC(=O)[C@H](Cc2cccc(C(F)(F)F)c2)NC(=O)[C@H](CC(=O)O)NC(=O)[C@H](Cc2ccc(OCC(=O)O)cc2)NC(=O)[C@H](Cc2ccc(OCC(=O)O)cc2)NC(=O)CSC[C@@H](C(=O)N[C@@H](CCN)C(=O)NCCOCCOCC(=O)NCCCCCCCCCCC(=O)O)NC1=O", "note": "[Example 2579] ({CH2CO}-Y(Carboxymethyl)Y(Carboxymethyl)D[Phe(3-CF3)][Phe(4-COOH)][Bip]Q[NMeA][dL][Dab][Cha][Val(3-OH)]K(Ac)C[Dab][AEEA][Aun]-OH; thioether N-14)", "IC50": 0.0026}, {"compound": "CC(C)C[C@H]1NC(=O)[C@H](C)N(C)C(=O)[C@H](Cc2ccc(OCC(=O)O)cc2)NC(=O)[C@H](Cc2ccc(-c3ccccc3)cc2)NC(=O)[C@H](Cc2ccc(C(=O)O)cc2)NC(=O)[C@H](Cc2cccc(C(F)(F)F)c2)NC(=O)[C@H](CC(=O)O)NC(=O)[C@H](Cc2ccc(OCC(=O)O)cc2)NC(=O)[C@H](Cc2cnc[nH]2)NC(=O)CSC[C@@H](C(=O)N[C@@H](CCN)C(=O)NCCCCCCCCCCC(=O)O)NC(=O)[C@H](C(C)O)NC(=O)[C@H](C(C)C)NC(=O)[C@H](CC2CCCCC2)NC(=O)[C@H](CCN)NC1=O", "note": "(stereo partly drawn) [Example 2580] ({CH2CO}-HY(Carboxymethyl)D[Phe(3-CF3)][Phe(4-COOH)][Bip]Y(Carboxymethyl)[NMeA][dL][Dab][Cha]V[Thr(3ξ)]C[Dab][Aun]-OH; thioether N-14)", "IC50": 0.0068}, {"compound": "CC(C)C[C@H]1NC(=O)[C@H](C)N(C)C(=O)[C@H](Cc2ccc(OCC(=O)O)cc2)NC(=O)[C@H](Cc2ccc(-c3ccccc3)cc2)NC(=O)[C@H](Cc2ccc(C(=O)O)cc2)NC(=O)[C@H](Cc2cccc(C(F)(F)F)c2)NC(=O)[C@H](CC(=O)O)NC(=O)[C@H](Cc2ccc(OCC(=O)O)cc2)NC(=O)[C@H](Cc2cnc[nH]2)NC(=O)CSC[C@@H](C(=O)N[C@@H](CCN)C(=O)NCCCCCCCCCCC(=O)O)NC(=O)[C@H](CCC(=O)O)NC(=O)[C@H](C(C)C)NC(=O)[C@H](CC2CCCCC2)NC(=O)[C@H](CCN)NC1=O", "note": "[Example 2581] ({CH2CO}-HY(Carboxymethyl)D[Phe(3-CF3)][Phe(4-COOH)][Bip]Y(Carboxymethyl)[NMeA][dL][Dab][Cha]VEC[Dab][Aun]-OH; thioether N-14)", "IC50": 0.0092}, {"compound": "Cc1cccc(C[C@@H]2NC(=O)[C@H](CC(=O)O)NC(=O)[C@H](Cc3ccc(C(=O)O)cc3)NC(=O)[C@H](C)NC(=O)CSC[C@@H](C(=O)N[C@@H](CCN)C(=O)NCCCCCCCCCCC(=O)O)NC(=O)[C@H](C(C)O)NC(=O)[C@H](C(C)C)NC(=O)[C@H](CC3CCCCC3)NC(=O)[C@H](CCN)NC(=O)[C@@H](CC(C)C)NC(=O)[C@H](C)N(C)C(=O)[C@H](Cc3ccc(C(=O)O)cc3)NC(=O)[C@H](Cc3ccc(-c4ccccc4)cc3)NC(=O)[C@H](Cc3ccc(C(F)(F)F)cc3)NC2=O)c1", "note": "(stereo partly drawn) [Example 2582] ({CH2CO}-A[Phe(4-COOH)]D[Phe(3-Me)][Phe(4-CF3)][Bip][Phe(4-COOH)][NMeA][dL][Dab][Cha]V[Thr(3ξ)]C[Dab][Aun]-OH; thioether N-14)", "IC50": 0.0213}, {"compound": "CCC[C@@H]1NC(=O)[C@H](C(C)(C)O)NC(=O)[C@H](CC2CCCCC2)NC(=O)[C@H](CCN)NC(=O)[C@@H](CC(C)C)NC(=O)[C@H](C)N(C)C(=O)[C@H](Cc2ccc(C(=O)O)cc2)NC(=O)[C@H](Cc2ccc(-c3ccccc3)cc2)NC(=O)[C@H](Cc2ccc(C(=O)O)cc2)NC(=O)[C@H](Cc2cccc(C)c2)NC(=O)[C@H](CC(=O)O)NC(=O)[C@H](Cc2ccc(C(=O)O)cc2)NC(=O)[C@H](Cc2ccc(C(F)(F)F)cc2)NC(=O)CSC[C@@H](C(=O)N[C@@H](CCN)C(=O)NCCCCCCCCCCC(=O)O)NC1=O", "note": "[Example 2583] ({CH2CO}-[Phe(4-CF3)][Phe(4-COOH)]D[Phe(3-Me)][Phe(4-COOH)][Bip][Phe(4-COOH)][NMeA][dL][Dab][Cha][Val(3-OH)][Nva]C[Dab][Aun]-OH; thioether N-14)", "IC50": 0.0375}, {"compound": "CC(C)C[C@H]1NC(=O)[C@H](C)N(C)C(=O)[C@H](Cc2ccc(C(=O)O)cc2)NC(=O)[C@H](Cc2ccc(-c3ccccc3)cc2)NC(=O)[C@H](Cc2ccc(C(=O)O)cc2)NC(=O)[C@H](Cc2cccc(C(F)(F)F)c2)NC(=O)[C@H](CC(=O)O)NC(=O)[C@H](Cc2ccc(C(=O)O)cc2)NC(=O)[C@H](Cc2ccc(OCC(=O)O)cc2)NC(=O)CSC[C@@H](C(=O)N[C@@H](CCN)C(=O)NCCCCCCCCCCC(=O)O)NC(=O)[C@H](CO)NC(=O)[C@H](C(C)(C)O)NC(=O)[C@H](CC2CCCCC2)NC(=O)[C@H](CCN)NC1=O", "note": "[Example 2585] ({CH2CO}-Y(Carboxymethyl)[Phe(4-COOH)]D[Phe(3-CF3)][Phe(4-COOH)][Bip][Phe(4-COOH)][NMeA][dL][Dab][Cha][Val(3-OH)]SC[Dab][Aun]-OH; thioether N-14)", "IC50": 0.0025}, {"compound": "CCC(C)[C@@H]1NC(=O)[C@H](Cc2ccc(-c3ccccc3)cc2)NC(=O)[C@H](Cc2ccc(C(F)(F)F)cc2)NC(=O)[C@H](Cc2cccc(F)c2)NC(=O)[C@H](CC(=O)O)NC(=O)[C@H](Cc2ccc(C(=O)O)cc2)NC(=O)[C@H](Cc2cnc[nH]2)NC(=O)CSC[C@@H](C(=O)N[C@@H](CCN)C(=O)NCCCCCCCCCCC(=O)O)NC(=O)[C@H](CO)NC(=O)[C@H](C(C)(C)O)NC(=O)[C@H](CC2CCCCC2)NC(=O)[C@H](CCN)NC(=O)[C@@H](CC(C)C)NC(=O)[C@H](C)N(C)C1=O", "note": "(stereo partly drawn) [Example 2586] ({CH2CO}-H[Phe(4-COOH)]D[Phe(3-F)][Phe(4-CF3)][Bip][Ile(3ξ)][NMeA][dL][Dab][Cha][Val(3-OH)]SC[Dab][Aun]-OH; thioether N-14)", "IC50": 0.0141}, {"compound": "CCC(C)[C@@H]1NC(=O)[C@H](Cc2ccc(-c3ccccc3)cc2)NC(=O)[C@H](C(C)C)NC(=O)[C@H](Cc2c[nH]c3ccccc23)NC(=O)[C@H](CC(=O)O)NC(=O)[C@H](Cc2ccc(OCC(=O)O)cc2)NC(=O)[C@H](Cc2ccc(OCC(=O)O)cc2)NC(=O)CSC[C@@H](C(=O)N[C@@H](CCN)C(=O)NCCOCCOCC(=O)NCCCCCCCCCCC(=O)O)NC(=O)[C@H](CCCNC(N)=O)NC(=O)[C@H](C(C)(C)O)NC(=O)[C@H](CC2CCCCC2)NC(=O)[C@H](Cc2cnc[nH]2)NC(=O)[C@@H](CC(C)C)NC(=O)[C@H](C)N(C)C1=O", "note": "(stereo partly drawn) [Example 2587] ({CH2CO}-Y(Carboxymethyl)Y(Carboxymethyl)DWV[Bip][Ile(3ξ)][NMeA][dL]H[Cha][Val(3-OH)][Cit]C[Dab][AEEA][Aun]-OH; thioether N-14)", "IC50": 0.0135}, {"compound": "CCC(C)[C@@H]1NC(=O)[C@H](Cc2ccc(-c3ccccc3)cc2)NC(=O)[C@H](C(C)C)NC(=O)[C@H](Cc2c[nH]c3ccccc23)NC(=O)[C@H](CC(=O)O)NC(=O)[C@H](Cc2ccc(OCC(=O)O)cc2)NC(=O)[C@H](Cc2ccc(OCC(=O)O)cc2)NC(=O)CSC[C@@H](C(=O)N[C@@H](CCN)C(=O)NCCOCCOCC(=O)NCCCCCCCCCCC(=O)O)NC(=O)[C@H](CCCCNC(C)=O)NC(=O)[C@H](C(C)(C)O)NC(=O)[C@H](CC2CCCCC2)NC(=O)[C@H](Cc2cnc[nH]2)NC(=O)[C@@H](CC(C)C)NC(=O)[C@H](C)N(C)C1=O", "note": "(stereo partly drawn) [Example 2588] ({CH2CO}-Y(Carboxymethyl)Y(Carboxymethyl)DWV[Bip][Ile(3ξ)][NMeA][dL]H[Cha][Val(3-OH)]K(Ac)C[Dab][AEEA][Aun]-OH; thioether N-14)", "IC50": 0.0042}, {"compound": "CCC[C@@H]1NC(=O)[C@H](C(C)(C)O)NC(=O)[C@H](CC2CCCCC2)NC(=O)[C@H](Cc2cnc[nH]2)NC(=O)[C@@H](CC(C)C)NC(=O)[C@H](C)N(C)C(=O)[C@H](C(C)CC)NC(=O)[C@H](Cc2ccc(-c3ccccc3)cc2)NC(=O)[C@H](C(C)C)NC(=O)[C@H](Cc2c[nH]c3ccccc23)NC(=O)[C@H](CC(=O)O)NC(=O)[C@H](Cc2ccc(OCC(=O)O)cc2)NC(=O)[C@H](Cc2ccc(OCC(=O)O)cc2)NC(=O)CSC[C@@H](C(=O)N[C@@H](CCN)C(=O)NCCOCCOCC(=O)NCCCCCCCCCCC(=O)O)NC1=O", "note": "(stereo partly drawn) [Example 2589] ({CH2CO}-Y(Carboxymethyl)Y(Carboxymethyl)DWV[Bip][Ile(3ξ)][NMeA][dL]H[Cha][Val(3-OH)][Nva]C[Dab][AEEA][Aun]-OH; thioether N-14)", "IC50": 0.0356}]}]}
